Where two headings read alike, the source gives them in different places.
Key:
recombinant human GALK1 = recombinant human GALK1 (Homo sapiens, UniProt P51570); experiment: hGALK1 biochemical activity assay (Kinase-Glo Plus, ATP depletion)
Procedure, shortened: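 Turnover is measured as ATP depletion by Kinase-Glo Plus luminescence after a 1 h room-temperature reaction. Compounds span 11 concentrations, 57.4 μM–0.97 nM, in final 20 mM HEPES pH 8.0 with 5 mM MgCl2. The substrate solution held 35 μM ATP; the added solution held 5 nM human or mouse GALK1 and 100 μM galactose.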

recombinant mouse GALK1 = recombinant mouse GALK1 (Mus musculus, UniProt Q9R0N0); experiment: mGALK1 biochemical activity assay (Kinase-Glo Plus, ATP depletion)
recombinant mouse GALK1, sequence (Q9R0N0 whole entry): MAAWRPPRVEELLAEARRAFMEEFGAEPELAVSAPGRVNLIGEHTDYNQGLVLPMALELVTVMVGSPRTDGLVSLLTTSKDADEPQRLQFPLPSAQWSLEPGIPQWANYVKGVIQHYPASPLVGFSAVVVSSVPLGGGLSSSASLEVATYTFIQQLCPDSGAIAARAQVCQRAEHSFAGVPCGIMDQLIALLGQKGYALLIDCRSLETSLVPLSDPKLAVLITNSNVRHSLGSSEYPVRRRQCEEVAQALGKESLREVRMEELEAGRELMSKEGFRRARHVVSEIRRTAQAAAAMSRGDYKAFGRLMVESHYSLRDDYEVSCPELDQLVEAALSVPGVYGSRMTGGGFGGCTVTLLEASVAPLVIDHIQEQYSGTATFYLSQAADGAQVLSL
Procedure, shortened: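 Recombinant GALK1 (5 nM) with 100 μM galactose; GALK1 turnover read as ATP depletion by Kinase-Glo Plus luminescence. Reaction ran 1 h at room temperature before detection reagent was added.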

[1] = aqueous kinetic solubility
[2] = rat microsomal stability (RLM); settings: microsomal half-life
[3] = Tables 2-15, 35 μM ATP, 100 μM galactose, 1 h, bracketed figure after some values (e.g. −1.2) is undefined and not reported, read-out: hGALK IC50
[4] = recombinant human GALK1, Kinase-Glo Plus ATP depletion, read-out: hGALK
[5] = Tables 2-15, 35 μM ATP, 100 μM galactose, 1 h, bracketed figure after some values is undefined and not reported, read-out: mGALK IC50
[6] = recombinant mouse GALK1, Kinase-Glo Plus ATP depletion, read-out: mGALK

recombinant human GALK1, sequence (P51570 whole entry): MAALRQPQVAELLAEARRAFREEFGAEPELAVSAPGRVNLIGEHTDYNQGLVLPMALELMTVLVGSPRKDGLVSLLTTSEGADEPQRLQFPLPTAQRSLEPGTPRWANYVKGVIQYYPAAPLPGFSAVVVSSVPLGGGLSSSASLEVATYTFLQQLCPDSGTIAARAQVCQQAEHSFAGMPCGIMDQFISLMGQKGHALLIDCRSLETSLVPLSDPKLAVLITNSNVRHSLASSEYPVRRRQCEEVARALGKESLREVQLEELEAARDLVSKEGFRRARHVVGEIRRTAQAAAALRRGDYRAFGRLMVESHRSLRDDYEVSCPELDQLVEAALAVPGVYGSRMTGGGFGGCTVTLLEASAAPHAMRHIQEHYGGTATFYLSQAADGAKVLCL

| SMILES | IC50 (recombinant human GALK1; [3]) [µM] | IC50 (recombinant human GALK1; [4]) [µM] | IC50 (recombinant mouse GALK1; [5]) [µM] | IC50 (recombinant mouse GALK1; [6]) [µM] | Perm. (1 × 10^−6 cm/sec) (PAMPA permeability) | Sol. [1] [µg/mL] | Metab. Stabil. (m) [2] [m] |
| --- | --- | --- | --- | --- | --- | --- | --- |
| CC1=C(C(=O)Nc2cc(C(=O)O)ccn2)C(c2ccccc2Cl)N=C(Nc2nc3cccc([N+](=O)[O-])c3o2)N1 (centres unmarked) [Compound 23, 2-(4-(2-chlorophenyl)-6-methyl-2-((7-nitrobenzo[d]oxazol-2-yl)amino)-1,4-dihydropyrimidine-5-carboxamido)isonicotinic acid] | 19.3 | 19.3 | 38.5 | 38.5 | 31.0 1 × 10^−6 cm/sec | 7.3 | >30 |
| CC1=C(C(=O)Nc2cc(C(=O)O)ccn2)[C@@H](c2ccccc2Cl)N=C(Nc2nc3cccc(N)c3o2)N1 [Compound 25, (S)-2-(2-((7-aminobenzo[d]oxazol-2-yl)amino)-4-(2-chlorophenyl)-6-methyl-1,4-dihydropyrimidine-5-carboxamido)isonicotinic acid] | 6.11 | 6.11 | 34.3 | 34.3 | <1.3 1 × 10^−6 cm/sec | >76 | >30 |
| CC1=C(C(=O)Nc2cc(CO)ccn2)C(c2ccccc2Cl)N=C(Nc2nc3ccc(F)cc3o2)N1 (centres unmarked) [Compound 37, 4-(2-chlorophenyl)-2-((6-fluorobenzo[d]oxazol-2-yl)amino)-N-(4-(hydroxymethyl)pyridin-2-yl)-6-methyl-1,4-dihydropyrimidine-5-carboxamide] | 3.06 | 3.06 | 10.9 | 10.9 | 59.9 1 × 10^−6 cm/sec | <1 | >30 |
| CC1=C(C(=O)Nc2cc(C(N)=O)ccn2)C(c2ccccc2Cl)N=C(Nc2nc3ccc(F)cc3o2)N1 (centres unmarked) [Compound 38, N-(4-carbamoylpyridin-2-yl)-4-(2-chlorophenyl)-2-((6-fluorobenzo[d]oxazol-2-yl)amino)-6-methyl-1,4-dihydropyrimidine-5-carboxamide] | 4.85 | 4.85 | 19.3 | 19.3 | 15.5 1 × 10^−6 cm/sec | 2.4 | >30 |
| CC1=C(C(=O)Nc2cc(C#N)ccn2)C(c2ccccc2Cl)N=C(Nc2nc3ccc(F)cc3o2)N1 (centres unmarked) [Compound 39, 4-(2-chlorophenyl)-N-(4-cyanopyridin-2-yl)-2-((6-fluorobenzo[d]oxazol-2-yl)amino)-6-methyl-1,4-dihydropyrimidine-5-carboxamide] | 4.32 | 4.32 | 4.85 | 4.85 | <6.8 1 × 10^−6 cm/sec | <1 | >30 |
| CC1=C(C(=O)Nc2ccc(C#N)cn2)C(c2ccccc2Cl)N=C(Nc2nc3ccc(F)cc3o2)N1 (centres unmarked) [Compound 40, 4-(2-chlorophenyl)-N-(5-cyanopyridin-2-yl)-2-((6-fluorobenzo[d]oxazol-2-yl)amino)-6-methyl-1,4-dihydropyrimidine-5-carboxamide] |  | 13.7 |  | 13.7 | <7.8 1 × 10^−6 cm/sec | <1 | >30 |
| CC1=C(C(=O)Nc2cc(-c3nn[nH]n3)ccn2)C(c2ccccc2Cl)N=C(Nc2nc3ccc(F)cc3o2)N1 (centres unmarked) [Compound 41, N-(4-(2H-tetrazol-5-yl)pyridin-2-yl)-4-(2-chlorophenyl)-2-((6-fluorobenzo[d]oxazol-2-yl)amino)-6-methyl-1,4-dihydropyrimidine-5-carboxamide] | 0.77 | 0.77 | 7.69 | 7.69 | <1 1 × 10^−6 cm/sec | 29.9 | >30 |
| CC1=C(C(=O)Nc2ccccn2)C(c2ccccc2Cl)N=C(Nc2nc3ccc(F)cc3o2)N1 (centres unmarked) [Compound 43, 4-(2-chlorophenyl)-2-((6-fluorobenzo[d]oxazol-2-yl)amino)-6-methyl-N-(pyridin-2-yl)-1,4-dihydropyrimidine-5-carboxamide] |  | 4.32 |  | 10.9 | 171.11 1 × 10^−6 cm/sec | <1 | >30 |
| CC1=C(C(=O)NCc2cnn(C)c2)C(c2ccccc2Cl)N=C(Nc2nc3ccc(F)cc3o2)N1 (centres unmarked) [Compound 44, 4-(2-chlorophenyl)-2-((6-fluorobenzo[d]oxazol-2-yl)amino)-6-methyl-N-((1-methyl-1H-pyrazol-4-yl)methyl)-1,4-dihydropyrimidine-5-carboxamide] |  | 1.72 |  | 12.2 | 942.87 1 × 10^−6 cm/sec | 13.7 | 26 |

The remaining lines, values ahead:

| IC50 (recombinant human GALK1; [3]) [µM] | IC50 (recombinant human GALK1; [4]) [µM] | IC50 (recombinant mouse GALK1; [5]) [µM] | IC50 (recombinant mouse GALK1; [6]) [µM] | Perm. (1 × 10^−6 cm/sec) (PAMPA permeability) | Sol. [1] [µg/mL] | Metab. Stabil. (m) [2] [m] | SMILES |
| --- | --- | --- | --- | --- | --- | --- | --- |
| 0.24 | 0.24 | 1.72 | 1.72 | <1 1 × 10^−6 cm/sec | 55.6 | >30 | CC1=C(C(=O)Nc2cc(C(=O)O)ccn2)[C@H](c2ccccc2Cl)N=C(Nc2nc3ccc(F)cc3o2)N1 [Compound 19, (R)-2-(4-(2-chlorophenyl)-2-((6-fluorobenzo[d]oxazol-2-yl)amino)-6-methyl-1,4-dihydropyrimidine-5-carboxamido)isonicotinic acid] |
| 3.06 | 3.06 | 13.7 | 13.7 | <1 1 × 10^−6 cm/sec | 17.3 | >30 | CC1=C(C(=O)Nc2cc(C(=O)O)ccn2)[C@@H](c2ccccc2Cl)N=C(Nc2nc3ccc(F)cc3o2)N1 [Compound 20, (S)-2-(4-(2-chlorophenyl)-2-((6-fluorobenzo[d]oxazol-2-yl)amino)-6-methyl-1,4-dihydropyrimidine-5-carboxamido)isonicotinic acid] |
|  | 0.68 |  | 3.43 | <1 1 × 10^−6 cm/sec | >77 | >30 | CC1=C(C(=O)Nc2ccc(C(=O)O)cn2)C(c2ccccc2Cl)N=C(Nc2nc3ccc(F)cc3o2)N1 (centres unmarked) [Compound 26, 6-(4-(2-chlorophenyl)-2-((6-fluorobenzo[d]oxazol-2-yl)amino)-6-methyl-1,4-dihydropyrimidine-5-carboxamido)nicotinic acid] |
|  | 1.54 |  | 19.3 | 29.6 1 × 10^−6 cm/sec | 54.0 | >30 | CC1=C(C(=O)Nc2cc(C(=O)O)ccc2Cl)C(c2ccccc2Cl)N=C(Nc2nc3ccc(F)cc3o2)N1 (centres unmarked) [Compound 29, 4-chloro-3-(4-(2-chlorophenyl)-2-((6-fluorobenzo[d]oxazol-2-yl)amino)-6-methyl-1,4-dihydropyrimidine-5-carboxamido)benzoic acid] |
|  | 2.17 |  | 6.85 | 2.2 1 × 10^−6 cm/sec | 35.7 | >30 | CC1=C(C(=O)Nc2cc(C(=O)O)ccc2F)C(c2ccccc2Cl)N=C(Nc2nc3ccc(F)cc3o2)N1 (centres unmarked) [Compound 30, 3-(4-(2-chlorophenyl)-2-((6-fluorobenzo[d]oxazol-2-yl)amino)-6-methyl-1,4-dihydropyrimidine-5-carboxamido)-4-fluorobenzoic acid] |

From patent publication US20230158025A1 (UNIVERSITY OF UTAH RESEARCH FOUNDATION, priority 2020, published 2023)
